Assay results from patent publication US5795891A, “Acylphenylglycine derivative and preventive and remedy for diseases caused by increased collagenase activity containing said compound as active ingredient” (Kanebo Ltd., priority 1993, dated 1998).
Counter-ions that a name gives are not always drawn.

Key:
[1] = parameters: species or system mice; conditions: mouse, in vivo, 3000 mg/kg
[2] = system: collagenase; experiment: Activity in the living body / absorbability (general statements); conditions: in vivo
[3] = system: collagenase; experiment: Collagenase activity inhibition rate in blood after oral administration (in mice); format: in vivo; conditions: 30 mg/kg p.o.; for Collagenase Inhibition rates in blood after oral administration, After 2 hours: after 2 hours (as printed in head; text says 3 hours)
Method: (§1) Test compounds were suspended in 0.5% CMC and orally administered to three mice per group (the dose of the test compound, 30 mg/kg), and after a certain period of time, the blood was collected in the presence of heparin and ice-cooled. Plasma was obtained by centrifugation of this blood at 10,000 rpm for 5 minutes at 4° C. To 400 μl of this plasma was added to 600 μl of distilled water, and heated at 100° C. for 10 minutes. After cooling, the mixture was centrifuged at 10,000 rpm for 5 minutes and filtered using a micro-volume ultrafiltration unit (Molcut II, Millipore) to provide a sample (A) for use in collagenase activity measurement. Using this sample, collagenase activity inhibition rate in blood was determined by the following method.
(§2) The sample (A) above was mixed with a known amount of collagenase (the collagenase used was prepared by the method described in JP-A-3-103178) dissolved in a buffer for measurement (50 mM Tris-HCl buffer, pH 7.5, containing 0.2M sodium chloride, 5 mM calcium chloride, 0.05% Brij-35 and 0.02% sodium azide,), and collagenase activity A was measured according to the method of Nagai et al. (Japanese Journal of Inflammation, 4, 123 (1984)) using a fluorescein isothiocyanate-labeled type-I collagen as a substrate. […] Inhibition rate was determined from the following equation:
(§3) Inhibition rate (%)=(1-A/B)×100

[4] = system: adjuvant arthritis; experiment: Adjuvant arthritis model: urinary hydroxyproline excretion; format: in vivo, male Lewis rats; conditions: for Urinary hydroxyproline excretion (ratio to creatinine): after day 20, 100 mg/kg at 12-hour intervals, control 94.3 ± 1.8, normal 71.8 ± 2.6
Method: (§4) 8-week old male Lewis rats (Charles River Japan, K.K.) were divided into 4 groups (normal control group, control group, and two test compound groups) of 7 animals each. Each of the rats of the control group and the test compound groups were intra-dermally injected with 0.6 mg of heat-killed M. butyricum in 0.1 ml of liquid paraffin suspension in their right hind paw to induce adjuvant arthritis. The test compounds were suspended in 0.5% CMC, and administered to the rats of the test compound group at a dose of 100 mg/kg per administration immediately after the injection of adjuvant and at 12-hour intervals thereafter over a period of 20 days. The rats of the control group received 0.5% CMC immediately after the injection of adjuvant and at 12-hour intervals thereafter over a period of 20 days. The rats of the normal control group were not injected with adjuvant but only administered 0.5% CMC analogously to the administration of the test compounds.
(§5) After the last administration of the test compounds on day 20, the rats were transferred into metabolic cages, and urine samples were collected overnight without supply of food or water. Urine volume and the amounts of creatinine and hydroxyproline were determined by the following method, and urinary hydroxyproline excretion expressed in the ratio to creatinine. Statistical analysis was made according to the Tukey's method for the superiority of test compound group over the control group. Determination of creatinine was carried out using Creatinine TestWAKO (Wako Junyaku). Hydroxyproline was determined by first hydrolyzing the urine with 6N hydrochloric acid, then isolation on high performance liquid chromatograph equipped with ion-exchange column (Hitachi Gel #2619), reaction with O-phthalaldehyde to form a hydroxyproline derivative, and measurement on a fluorophotometer.

[5] = system: adjuvant arthritis; experiment: Adjuvant arthritis model: erythrocyte sedimentation rates; format: in vivo, male Lewis rats; conditions: 100 mg/kg at 12-hour intervals for 20 days; for effect on increase in erythrocyte sedimentation rates (in words): vs control; for Erythrocyte sedimentation rates: day 21, control 33 ± 2, normal 1 ± 0.1, ** P < 0.01 vs control (Compound D)
Method: as §4
The blood was fully removed on day 21 and used as a sample. Erythrocyte sedimentation measuring apparatus (Matsuyoshi's Erythrocyte Sedimentation rack) was used for the measurement, and statistical analysis was made according to the Dunnett's method for the superiority of the test compound group over the control group.

[6] = system: adjuvant arthritis; experiment: Adjuvant arthritis model: serum calcium concentration; format: in vivo, male Lewis rats; conditions: 100 mg/kg at 12-hour intervals for 20 days; for effect on increase in serum calcium concentration (in words): vs control; for Serum calcium conc.: day 21, control 9.5 ± 0.1, normal 8.6 ± 0.1, ** P < 0.01 vs control (Compound D)
Method: as §4
Measurement was carried out on the same sample as above 2) using Calcium TestWAKO (Wako Junyaku), and statistical analysis was made according to the Dunnett's method for the superiority of the test compound group over the control group.

[7] = system: bone resorption; experiment: Test for inhibition of bone resorption: urine hydroxyproline/creatinine ratio in rats on calcium-deficient food; format: in vivo, male Wister rats; conditions: for effect on increase in urine hydroxyproline/creatinine ratio (in words): 100 mg/kg p.o., vs control; for Urinary hydroxyproline excretion (ratio to creatinine): single 100 mg/kg p.o., urine 16 hours, control 174 ± 7, normal 134 ± 7, * P < 0.05 vs control (Compound D)
Method: Furthermore, an investigation of its suppressive effect was carried out on bone resorption by administering the compound of the present invention to rats kept on a calcium-deficient food and using the urinary hydroxyproline excretion (ratio to creatinine) as an index.
as §5
6-week old male Wister rats (SLC Japan) were kept on a calcium-deficient food (Oriental Yeast, 0.0105-0.012% calcium, 0.62% phosphorus), orally administered 100 mg/kg of compound D or Y in a 0.5% CMC suspension on day 6 and, immediately thereafter, urine was collected for 16 hours under the condition of fasting with free access to water. The urine volume and urinary hydroxyproline and creatinirie content were measured by the method described in Example 3, and the urine hydroxyproline/creatinie ratio was calculated. Statistical analysis was made using the Tukey's method for the superiority of the test compound group over the control group.

[8] = system: adjuvant arthritis; experiment: Adjuvant arthritis model: hind paw volume (swelling of adjuvant-uninjected hind paw); format: in vivo, male Lewis rats; conditions: 100 mg/kg at 12-hour intervals for 20 days; FIG. 1; t-test vs control
Method: as §4
The volume of the hind paw was measured immediately before and on days 3, 7, 10, 14, 17 and 20 after the injection of adjuvant using a foot volume measuring apparatus. Analysis was made using t-test for superiority of the test compound group over the control group.
In the figure, lines n, c, y and d indicate the volume of the hind paw for the following groups, respectively: […]

[9] = system: collagenase; experiment: Collagenase activity inhibition rate in blood after oral administration (in rats); format: in vivo; conditions: 100 mg/kg p.o.
Method: as §1, §2, §3
The same procedure as Test Example 1 was followed except that mice were replaced with rats (3 rats/group) and the dose of the tested compounds selected to be 100 mg/kg.

## CNC(=O)C(NC(=O)C(CC(C)C)C(C)C(=O)NO)c1ccccc1 (single isomer, unassigned) [Compound D]
[1]
  death after oral administration: no death was observed
[2]
  activity in the living body (in words): exhibits an excellent activity in the living body
[3]
  Collagenase Inhibition rates in blood after oral administration, After 1 hour: 87%
  Collagenase Inhibition rates in blood after oral administration, After 2 hours: 76%
[4]; 100 mg/kg at 12-hour intervals for 20 days
  effect on increase in urinary hydroxyproline excretion (in words): tended to suppress the increase in urinary hydroxyproline excretion
[4]
  Urinary hydroxyproline excretion (ratio to creatinine): 78.4 ± 6.1 μg/mg creatinine
[5]
  effect on increase in erythrocyte sedimentation rates (in words): significantly suppressed the increase in erythrocyte sedimentation rates
  Erythrocyte sedimentation rates: 20 ± 2
[6]
  effect on increase in serum calcium concentration (in words): significantly suppressed the increase in serum calcium concentration
  Serum calcium conc.: 8.9 ± 0.1 mg/dL
[7]
  effect on increase in urine hydroxyproline/creatinine ratio (in words): exhibited a significant suppression from the level of the control group
  Urinary hydroxyproline excretion (ratio to creatinine): 144 ± 5 μg/mg creatinine
[8]
  swelling (volume increase) of the adjuvant-uninjected hind paw: suppressed the swelling (volume increase) of the adjuvant-uninjected hind paw

## CNC(=O)C(NC(=O)C(CC(=O)NO)CC(C)C)c1ccccc1 [Compound A, [4-(N-hydroxyamino)-2(R)-isobutylsuccinyl]-L-phenylglycine-N-methylamide]
[3]
  Collagenase Inhibition rates in blood after oral administration, After 1 hour: 88%
  Collagenase Inhibition rates in blood after oral administration, After 2 hours: 83%
[9]
  Collagenase Inhibition rates in blood after oral administration, After 1 hr.: 100%
  Collagenase Inhibition rates in blood after oral administration, After 3 hrs.: 91%
  Collagenase Inhibition rates in blood after oral administration, After 6 hrs.: 64%

## CNC(=O)C(NC(=O)C(CC(=O)NO)CC(C)C)c1ccc(O)cc1 [Compound B, [4-(N-hydroxyamino)-2(R)-isobutylsuccinyl]-L-(p-hydroxyphenyl)glycine-N-methylamide]
[3]
  Collagenase Inhibition rates in blood after oral administration, After 1 hour: 84%
  Collagenase Inhibition rates in blood after oral administration, After 2 hours: 62%

## CNC(=O)C(NC(=O)C(CC(C)C)C(CN1CCOCC1)C(=O)NO)c1ccccc1 [Compound C, [4-(N-hydroxyamino)-2(R)-isobutyl-3-(morpholinomethyl)succinyl]-L-phenylglycine-N-methylamide hydrochloride]
[3]
  Collagenase Inhibition rates in blood after oral administration, After 1 hour: 75%
  Collagenase Inhibition rates in blood after oral administration, After 2 hours: 64%

## CNCC(C(=O)NO)C(CC(C)C)C(=O)NC(C(=O)NC)c1ccccc1 [Compound E, [4-(N-hydroxyamino)-2(R)-isobutyl-3-(methylaminomethyl)succinyl]-L-phenylglycine-N-methylamide]
[3]
  Collagenase Inhibition rates in blood after oral administration, After 1 hour: 82%
  Collagenase Inhibition rates in blood after oral administration, After 2 hours: 61%

## CCNC(=O)C(NC(=O)C(CC(=O)NO)CC(C)C)c1ccccc1 [Compound F, [4-(N-hydroxyamino)-2(R)-isobutylsuccinyl]-L-phenylglycine-N-ethylamide]
[3]
  Collagenase Inhibition rates in blood after oral administration, After 1 hour: 89%
  Collagenase Inhibition rates in blood after oral administration, After 2 hours: 53%

## CNC(=O)C(NC(=O)C(CC(=O)NO)CC(C)C)c1ccc(F)cc1 [Compound G, [4-(N-hydroxyamino)-2(R)-isobutylsuccinyl]-L-(p-fluorophenyl)glycine-N-methylamide]
[3]
  Collagenase Inhibition rates in blood after oral administration, After 1 hour: 83%
  Collagenase Inhibition rates in blood after oral administration, After 2 hours: 64%

## CNC(=O)C(NC(=O)C(CC(=O)NO)CC(C)C)c1ccc(C(C)C)cc1 [Compound H, [4-(N-hydroxyamino)-2(R)-isobutylsuccinyl]-L-(p-isopropylphenyl)glycine-N-methylamide]
[3]
  Collagenase Inhibition rates in blood after oral administration, After 1 hour: 74%
  Collagenase Inhibition rates in blood after oral administration, After 2 hours: 63%

## CNC(=O)[C@H](Cc1ccc(OC)cc1)NC(=O)[C@@H](CC(=O)NO)CC(C)C [Known compound X, [4-(N-hydroxyamino)-2(R)-isobutylsuccinyl]-L-O-methyltyrosine-N-methylamide, reference compound]
[3]
  Collagenase Inhibition rates in blood after oral administration, After 1 hour: 60%
  Collagenase Inhibition rates in blood after oral administration, After 2 hours: 43%
[9]
  Collagenase Inhibition rates in blood after oral administration, After 1 hr.: 45%
  Collagenase Inhibition rates in blood after oral administration, After 3 hrs.: 44%
  Collagenase Inhibition rates in blood after oral administration, After 6 hrs.: 33%

## CNC(=O)[C@H](Cc1ccccc1)NC(=O)[C@H](CC(C)C)[C@H](CSc1cccs1)C(=O)NO [Known compound Y, [4-(N-hydroxyamino)-2(R)-isobutyl-3(S)-(2-thienyl)thiomethylsuccinyl]-L-phenylalanine-N-methylamide, reference compound]
[3]
  Collagenase Inhibition rates in blood after oral administration, After 1 hour: 14%
  Collagenase Inhibition rates in blood after oral administration, After 2 hours: 21%
[4]
  Urinary hydroxyproline excretion (ratio to creatinine): 107.1 ± 6.5 μg/mg creatinine
[5]
  effect on increase in erythrocyte sedimentation rates (in words): no such effect was noted
  Erythrocyte sedimentation rates: 30 ± 3
[6]
  effect on increase in serum calcium concentration (in words): no such effect was noted
  Serum calcium conc.: 9.6 ± 0.1 mg/dL
[7]
  effect on increase in urine hydroxyproline/creatinine ratio (in words): hardly suppressed this increase
  Urinary hydroxyproline excretion (ratio to creatinine): 161 ± 3 μg/mg creatinine

## CNC(=O)[C@H](Cc1c[nH]c2ccccc12)NC(=O)[C@@H](CC(=O)NO)CC(C)C [Known compound Z, [4-(N-hydroxyamino)-2(R)-isobutylsuccinyl]-L-tryptophan-N-methylamide, reference compound]
[3]
  Collagenase Inhibition rates in blood after oral administration, After 1 hour: 58%
  Collagenase Inhibition rates in blood after oral administration, After 2 hours: 51%
